Assay results as given in ChEMBL document CHEMBL1201862, “PubChem BioAssay data set” (2004).
Active and inactive are the calls of the source.

How the values were obtained:
[1] = target: T1, Nucleotide-binding oligomerization domain-containing protein 1 (Homo sapiens, UniProt Q9Y239); experiment: blockers of NOD1 pathway activity – revised, SAR follow-up (AID 2333); assay type: functional
T1 sequence (Q9Y239 whole entry): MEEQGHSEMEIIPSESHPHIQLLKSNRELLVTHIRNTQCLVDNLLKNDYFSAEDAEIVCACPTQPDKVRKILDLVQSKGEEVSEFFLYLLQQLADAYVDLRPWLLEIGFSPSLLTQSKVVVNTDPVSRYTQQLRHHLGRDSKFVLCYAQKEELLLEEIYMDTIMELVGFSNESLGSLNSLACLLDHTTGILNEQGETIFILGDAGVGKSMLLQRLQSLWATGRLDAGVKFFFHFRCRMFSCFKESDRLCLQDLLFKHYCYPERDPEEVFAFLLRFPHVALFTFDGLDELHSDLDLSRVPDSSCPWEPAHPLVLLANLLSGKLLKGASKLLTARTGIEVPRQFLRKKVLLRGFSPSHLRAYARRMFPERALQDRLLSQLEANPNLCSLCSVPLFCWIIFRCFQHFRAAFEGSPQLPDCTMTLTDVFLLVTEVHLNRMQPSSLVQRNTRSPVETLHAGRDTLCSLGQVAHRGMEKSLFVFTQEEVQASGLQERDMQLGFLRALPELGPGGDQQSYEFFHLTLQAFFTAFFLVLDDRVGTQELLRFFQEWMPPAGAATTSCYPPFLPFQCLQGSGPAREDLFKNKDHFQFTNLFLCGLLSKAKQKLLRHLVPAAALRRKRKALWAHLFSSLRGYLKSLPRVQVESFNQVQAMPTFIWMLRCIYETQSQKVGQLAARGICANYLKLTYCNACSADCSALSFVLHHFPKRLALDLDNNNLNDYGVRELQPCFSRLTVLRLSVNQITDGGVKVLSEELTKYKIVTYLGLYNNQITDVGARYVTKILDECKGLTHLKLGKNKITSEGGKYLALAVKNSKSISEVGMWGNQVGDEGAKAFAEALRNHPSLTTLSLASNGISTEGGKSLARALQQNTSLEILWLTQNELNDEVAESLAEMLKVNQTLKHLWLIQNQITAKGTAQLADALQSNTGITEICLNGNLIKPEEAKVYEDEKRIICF

Tumor necrosis factor = Tumor necrosis factor (Homo sapiens, UniProt P01375); experiment: analog potency on TNFa NF-kB signaling – cell-based, revised, SAR follow-up (AID 2337); assay type: functional
Tumor necrosis factor, sequence (P01375 whole entry): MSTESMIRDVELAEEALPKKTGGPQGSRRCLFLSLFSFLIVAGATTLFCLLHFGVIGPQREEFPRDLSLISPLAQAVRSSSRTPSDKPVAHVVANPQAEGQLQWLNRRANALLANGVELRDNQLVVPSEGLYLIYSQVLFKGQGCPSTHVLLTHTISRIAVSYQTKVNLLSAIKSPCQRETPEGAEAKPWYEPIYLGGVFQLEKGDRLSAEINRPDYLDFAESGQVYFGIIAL

HEK293 [2] = experiment: cells; settings: Homo sapiens
Albumin = Albumin (Bos taurus, UniProt P02769); experiment: Counterscreen for inhibitors of T-cell receptor (TCR)-CD3 interaction: Fluorescence-based biochemical high throughput dose response assay to identify inhibitors of T-cell receptor (TCR)-CD3 interaction using a TAMRA-labeled BSA probe.; assay type: functional
Albumin, sequence (P02769 whole entry): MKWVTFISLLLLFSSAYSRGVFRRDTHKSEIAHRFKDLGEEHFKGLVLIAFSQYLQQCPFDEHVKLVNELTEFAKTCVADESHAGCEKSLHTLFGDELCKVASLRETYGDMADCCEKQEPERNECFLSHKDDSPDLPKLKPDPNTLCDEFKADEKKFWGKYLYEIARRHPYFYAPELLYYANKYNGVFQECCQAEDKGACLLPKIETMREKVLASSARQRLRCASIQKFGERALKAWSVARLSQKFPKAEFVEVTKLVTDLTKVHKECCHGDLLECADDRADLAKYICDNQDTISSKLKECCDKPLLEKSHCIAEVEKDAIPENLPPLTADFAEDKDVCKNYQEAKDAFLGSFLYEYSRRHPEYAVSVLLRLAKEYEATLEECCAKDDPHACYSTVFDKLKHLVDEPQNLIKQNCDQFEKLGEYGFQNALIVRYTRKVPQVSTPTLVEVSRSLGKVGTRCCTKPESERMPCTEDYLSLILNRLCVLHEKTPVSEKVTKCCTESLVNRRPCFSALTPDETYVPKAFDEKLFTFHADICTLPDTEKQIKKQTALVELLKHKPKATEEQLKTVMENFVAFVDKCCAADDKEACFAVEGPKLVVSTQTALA

[3] = target: T2, Small ubiquitin-related modifier 1 (Homo sapiens, UniProt P63165); experiment: SUMO1 protein-protein binding blockers, potency – biochemical, FRET, dose response (AID 624383); assay type: functional; settings: read-out: IC50_Mean
T2 sequence (P63165 whole entry): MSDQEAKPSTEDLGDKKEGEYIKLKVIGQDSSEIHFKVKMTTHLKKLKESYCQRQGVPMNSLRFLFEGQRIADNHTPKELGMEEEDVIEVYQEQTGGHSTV

[4] = target: T2, Small ubiquitin-related modifier 1; experiment: SUMO1 protein interaction blockers, potency – biochemical, fluorescence polarization, uHTS hits, dose response (AID 624382); assay type: functional; settings: read-out: IC50_Mean
HeLa = experiment: viability loss in HeLa cells – cell-based, 24 h, cherry-picked samples, cytotoxicity control, dose response (AID 504726); assay type: functional; settings: Homo sapiens;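 further: potency for cytotoxicity as loss of luminescence signal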
[5] = target: T3, Rac GTPase-activating protein 1 (Homo sapiens, UniProt Q9H0H5); experiment: blockers of MgcRacGAP-driven Rac1 GTP hydrolysis – biochemical, ADP Hunter fluorescence, primary and confirmatory, confirmation (AID 624330); assay type: functional
T3 sequence (Q9H0H5 whole entry): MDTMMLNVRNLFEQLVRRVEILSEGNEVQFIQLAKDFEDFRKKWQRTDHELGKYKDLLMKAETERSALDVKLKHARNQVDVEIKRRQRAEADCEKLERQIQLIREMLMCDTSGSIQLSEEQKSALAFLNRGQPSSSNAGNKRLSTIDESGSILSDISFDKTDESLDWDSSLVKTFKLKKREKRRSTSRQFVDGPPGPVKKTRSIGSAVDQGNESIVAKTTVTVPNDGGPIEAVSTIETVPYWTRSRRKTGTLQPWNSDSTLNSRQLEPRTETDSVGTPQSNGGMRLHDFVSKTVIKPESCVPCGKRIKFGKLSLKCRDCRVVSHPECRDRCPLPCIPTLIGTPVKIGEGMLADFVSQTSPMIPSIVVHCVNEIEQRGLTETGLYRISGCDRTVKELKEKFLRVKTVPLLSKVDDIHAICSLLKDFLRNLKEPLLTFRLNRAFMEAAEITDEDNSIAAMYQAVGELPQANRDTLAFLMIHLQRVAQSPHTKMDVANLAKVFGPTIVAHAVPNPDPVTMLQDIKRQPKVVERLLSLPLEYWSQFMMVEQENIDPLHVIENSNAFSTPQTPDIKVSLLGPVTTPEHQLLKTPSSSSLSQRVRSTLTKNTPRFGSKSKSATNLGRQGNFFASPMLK

[6] = target: T4, Carboxy-terminal domain RNA polymerase II polypeptide A small phosphatase 1 (Homo sapiens, UniProt Q9GZU7); experiment: CTDSP1 inhibitors, concentration-response, biochemical, absorbance readout, ultra-high-throughput screen actives (AID 540297); assay type: functional
T4 sequence (Q9GZU7 whole entry): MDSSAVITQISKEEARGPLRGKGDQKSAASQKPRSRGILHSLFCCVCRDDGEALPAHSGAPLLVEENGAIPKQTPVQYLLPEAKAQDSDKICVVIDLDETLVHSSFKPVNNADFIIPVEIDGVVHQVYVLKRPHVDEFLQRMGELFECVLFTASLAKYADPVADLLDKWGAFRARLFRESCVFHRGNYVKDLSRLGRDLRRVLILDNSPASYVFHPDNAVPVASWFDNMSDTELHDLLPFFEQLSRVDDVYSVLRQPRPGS

[7] = target: T5, Nuclear receptor subfamily 0 group B member 1 (Homo sapiens, UniProt P51843); experiment: Luminescence-based cell-based high throughput dose response assay for inhibitors of the orphan nuclear receptor subfamily 0, group B, member 1 (DAX1; NR0B1). [Related pubchem assays (depositor defined):AID504766, AID504790]; assay type: functional
T5 sequence (P51843 whole entry): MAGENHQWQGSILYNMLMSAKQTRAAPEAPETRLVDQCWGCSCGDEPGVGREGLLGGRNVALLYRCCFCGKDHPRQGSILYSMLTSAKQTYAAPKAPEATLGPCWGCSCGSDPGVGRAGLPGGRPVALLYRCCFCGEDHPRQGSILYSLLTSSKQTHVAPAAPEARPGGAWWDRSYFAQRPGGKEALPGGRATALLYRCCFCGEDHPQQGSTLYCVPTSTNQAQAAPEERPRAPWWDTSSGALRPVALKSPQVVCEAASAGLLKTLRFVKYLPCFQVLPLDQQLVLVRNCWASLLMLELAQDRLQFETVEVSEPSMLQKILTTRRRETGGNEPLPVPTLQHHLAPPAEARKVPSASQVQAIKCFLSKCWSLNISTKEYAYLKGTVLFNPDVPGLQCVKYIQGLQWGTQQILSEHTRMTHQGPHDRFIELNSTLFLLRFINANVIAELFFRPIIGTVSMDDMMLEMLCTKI

HEK293 [8] = experiment: cells; assay type: functional, cell-based; settings: Homo sapiens
H9c2 = experiment: cells; assay type: functional, cell-based; settings: Rattus norvegicus, H9c2, Myocardium
[9] = DRD fibroblast viability loss – cell-based, non-viral oncogenic, luminescence, dose response (AID 1934); assay type: functional; settings: Homo sapiens
BJ [10] = experiment: BJ-TERT fibroblast viability loss – cell-based, RAS-independent, luminescence, dose response (AID 1933); assay type: functional; settings: Homo sapiens
BJ [11] = experiment: BJ-TERT-LT-ST fibroblast viability loss – cell-based, RAS-independent, luminescence, dose response (AID 1935); assay type: functional; settings: Homo sapiens;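 further: BJ fibroblasts immortalized with TERT plus LT and ST oncogenes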
BJ [12] = experiment: cells; assay type: functional, cell-based; settings: Homo sapiens
BJ [13] = experiment: growth inhibition of engineered Ras-driven BJ cells – cell-based, alamar blue fluorescence, cherrypicked samples, dose response (AID 2631); assay type: functional; settings: Homo sapiens;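 further: confirmatory dose-response assay in RAS-dependent BJ fibroblasts engineered with TERT, LT and ST, with cytotoxicity read by fluorescence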
[14] = target: T6, Polyadenylate-binding protein 1 (Homo sapiens, UniProt P11940); experiment: MLLE binding blockers, Cy5 peptide tracer – biochemical, fluorescence polarization, Cy5-PAM2 peptide, secondary, miRNA deadenylation inhibitor project, dose response (AID 602260); assay type: functional; settings: read-out: IC50_Mean
T6 sequence (P11940 whole entry): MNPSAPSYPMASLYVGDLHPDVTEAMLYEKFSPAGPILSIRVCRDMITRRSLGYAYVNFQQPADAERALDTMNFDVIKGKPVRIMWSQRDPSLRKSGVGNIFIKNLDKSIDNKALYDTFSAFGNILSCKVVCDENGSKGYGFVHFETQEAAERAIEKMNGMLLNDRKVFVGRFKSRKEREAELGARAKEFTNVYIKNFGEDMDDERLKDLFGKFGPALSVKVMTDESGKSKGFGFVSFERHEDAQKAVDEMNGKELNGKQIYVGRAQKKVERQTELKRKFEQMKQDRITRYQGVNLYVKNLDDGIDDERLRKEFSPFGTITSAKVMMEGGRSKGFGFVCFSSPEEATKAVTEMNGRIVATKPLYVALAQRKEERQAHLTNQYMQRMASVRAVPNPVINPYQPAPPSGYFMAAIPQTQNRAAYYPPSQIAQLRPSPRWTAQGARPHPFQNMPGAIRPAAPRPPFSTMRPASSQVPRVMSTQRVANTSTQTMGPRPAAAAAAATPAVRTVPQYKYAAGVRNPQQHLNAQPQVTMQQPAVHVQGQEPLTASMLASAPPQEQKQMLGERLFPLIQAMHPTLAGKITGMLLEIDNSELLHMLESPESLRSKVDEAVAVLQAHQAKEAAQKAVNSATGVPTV

[15] = target: Ras and Rab interactor 1/Tyrosine-protein kinase ABL1 (Homo sapiens, UniProt P00519+Q13671); assay type: functional;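 further: biochemical TR-FRET dose-response test measuring inhibition of binding between Rin1 and Abl proteins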
Ras and Rab interactor 1/Tyrosine-protein kinase ABL1, sequence (P00519 whole entry, the tested form may be a part): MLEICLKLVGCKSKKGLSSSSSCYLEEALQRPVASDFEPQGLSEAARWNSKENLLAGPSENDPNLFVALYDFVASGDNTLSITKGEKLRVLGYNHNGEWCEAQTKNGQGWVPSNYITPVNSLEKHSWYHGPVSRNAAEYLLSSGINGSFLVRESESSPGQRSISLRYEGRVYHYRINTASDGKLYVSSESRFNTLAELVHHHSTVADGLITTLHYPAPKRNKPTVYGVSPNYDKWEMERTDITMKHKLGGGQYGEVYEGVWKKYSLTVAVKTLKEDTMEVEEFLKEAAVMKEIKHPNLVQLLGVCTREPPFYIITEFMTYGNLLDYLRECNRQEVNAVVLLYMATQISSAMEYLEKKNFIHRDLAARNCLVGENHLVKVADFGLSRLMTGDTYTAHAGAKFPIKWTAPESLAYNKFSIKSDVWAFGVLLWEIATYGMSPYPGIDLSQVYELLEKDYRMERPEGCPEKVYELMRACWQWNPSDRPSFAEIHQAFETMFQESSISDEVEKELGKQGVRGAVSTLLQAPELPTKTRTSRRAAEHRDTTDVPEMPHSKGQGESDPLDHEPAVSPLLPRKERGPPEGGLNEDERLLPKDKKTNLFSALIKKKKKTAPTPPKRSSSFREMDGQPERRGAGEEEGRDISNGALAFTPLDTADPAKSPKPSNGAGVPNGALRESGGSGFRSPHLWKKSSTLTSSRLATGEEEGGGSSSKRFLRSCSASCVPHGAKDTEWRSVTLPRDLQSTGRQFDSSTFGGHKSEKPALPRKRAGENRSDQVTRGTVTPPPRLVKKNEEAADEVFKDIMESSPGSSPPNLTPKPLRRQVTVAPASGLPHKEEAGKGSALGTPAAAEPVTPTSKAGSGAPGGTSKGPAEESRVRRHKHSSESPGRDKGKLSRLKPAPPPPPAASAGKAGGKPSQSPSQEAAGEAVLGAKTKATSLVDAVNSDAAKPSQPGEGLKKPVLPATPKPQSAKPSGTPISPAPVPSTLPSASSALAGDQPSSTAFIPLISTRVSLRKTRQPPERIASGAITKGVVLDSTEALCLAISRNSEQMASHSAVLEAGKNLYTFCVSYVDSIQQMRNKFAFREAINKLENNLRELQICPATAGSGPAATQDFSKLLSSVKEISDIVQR
Ras and Rab interactor 1/Tyrosine-protein kinase ABL1, sequence (Q13671 whole entry, the tested form may be a part): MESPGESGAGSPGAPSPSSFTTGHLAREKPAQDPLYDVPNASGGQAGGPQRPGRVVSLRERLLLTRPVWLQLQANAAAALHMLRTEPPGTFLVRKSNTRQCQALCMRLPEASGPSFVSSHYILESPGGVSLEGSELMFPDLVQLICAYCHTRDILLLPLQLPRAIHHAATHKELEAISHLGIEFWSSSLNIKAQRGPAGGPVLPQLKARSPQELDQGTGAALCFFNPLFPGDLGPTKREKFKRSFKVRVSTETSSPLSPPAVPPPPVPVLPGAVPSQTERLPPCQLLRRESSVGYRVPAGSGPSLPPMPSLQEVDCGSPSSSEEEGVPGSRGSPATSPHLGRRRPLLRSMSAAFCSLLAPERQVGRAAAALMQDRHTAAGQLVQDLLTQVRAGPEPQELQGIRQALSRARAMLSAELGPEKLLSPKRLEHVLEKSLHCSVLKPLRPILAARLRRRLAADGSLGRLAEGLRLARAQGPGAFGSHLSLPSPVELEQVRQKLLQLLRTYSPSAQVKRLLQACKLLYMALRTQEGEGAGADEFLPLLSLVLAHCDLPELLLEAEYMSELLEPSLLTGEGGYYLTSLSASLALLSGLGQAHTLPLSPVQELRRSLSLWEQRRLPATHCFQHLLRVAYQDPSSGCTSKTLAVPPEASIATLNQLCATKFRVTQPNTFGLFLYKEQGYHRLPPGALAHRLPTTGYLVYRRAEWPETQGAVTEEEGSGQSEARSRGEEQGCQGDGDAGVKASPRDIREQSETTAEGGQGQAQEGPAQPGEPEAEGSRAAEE

[16] = target: T6, Polyadenylate-binding protein 1; experiment: MLLE domain peptide-binding blockers, IC50 – biochemical, fluorescence polarization, FITC-PAM2 peptide, dose response (AID 602259); assay type: functional; settings: read-out: IC50_Mean
Aurora kinase B = Aurora kinase B (Homo sapiens, UniProt Q96GD4); assay type: functional
Aurora kinase A = target: T7, Aurora kinase A (Homo sapiens, UniProt O14965); assay type: functional;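 further: value from the Navigating the Kinome kinase panel profiling, panel entry STK6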
T7 sequence (O14965 whole entry): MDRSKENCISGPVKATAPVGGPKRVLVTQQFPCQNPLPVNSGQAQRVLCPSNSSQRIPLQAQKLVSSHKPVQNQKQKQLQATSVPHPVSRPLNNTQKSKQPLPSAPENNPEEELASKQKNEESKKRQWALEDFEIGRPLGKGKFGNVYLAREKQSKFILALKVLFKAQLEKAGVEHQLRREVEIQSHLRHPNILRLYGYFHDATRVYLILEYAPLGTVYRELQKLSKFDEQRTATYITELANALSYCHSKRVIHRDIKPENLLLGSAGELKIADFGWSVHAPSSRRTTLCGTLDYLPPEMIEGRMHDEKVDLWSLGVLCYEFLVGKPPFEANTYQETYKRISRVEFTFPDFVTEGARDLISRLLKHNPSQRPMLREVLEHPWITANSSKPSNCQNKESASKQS

[17] = target: Vascular endothelial growth factor receptor 2 (Homo sapiens, UniProt P35968); assay type: functional
Vascular endothelial growth factor receptor 2, sequence (P35968 whole entry): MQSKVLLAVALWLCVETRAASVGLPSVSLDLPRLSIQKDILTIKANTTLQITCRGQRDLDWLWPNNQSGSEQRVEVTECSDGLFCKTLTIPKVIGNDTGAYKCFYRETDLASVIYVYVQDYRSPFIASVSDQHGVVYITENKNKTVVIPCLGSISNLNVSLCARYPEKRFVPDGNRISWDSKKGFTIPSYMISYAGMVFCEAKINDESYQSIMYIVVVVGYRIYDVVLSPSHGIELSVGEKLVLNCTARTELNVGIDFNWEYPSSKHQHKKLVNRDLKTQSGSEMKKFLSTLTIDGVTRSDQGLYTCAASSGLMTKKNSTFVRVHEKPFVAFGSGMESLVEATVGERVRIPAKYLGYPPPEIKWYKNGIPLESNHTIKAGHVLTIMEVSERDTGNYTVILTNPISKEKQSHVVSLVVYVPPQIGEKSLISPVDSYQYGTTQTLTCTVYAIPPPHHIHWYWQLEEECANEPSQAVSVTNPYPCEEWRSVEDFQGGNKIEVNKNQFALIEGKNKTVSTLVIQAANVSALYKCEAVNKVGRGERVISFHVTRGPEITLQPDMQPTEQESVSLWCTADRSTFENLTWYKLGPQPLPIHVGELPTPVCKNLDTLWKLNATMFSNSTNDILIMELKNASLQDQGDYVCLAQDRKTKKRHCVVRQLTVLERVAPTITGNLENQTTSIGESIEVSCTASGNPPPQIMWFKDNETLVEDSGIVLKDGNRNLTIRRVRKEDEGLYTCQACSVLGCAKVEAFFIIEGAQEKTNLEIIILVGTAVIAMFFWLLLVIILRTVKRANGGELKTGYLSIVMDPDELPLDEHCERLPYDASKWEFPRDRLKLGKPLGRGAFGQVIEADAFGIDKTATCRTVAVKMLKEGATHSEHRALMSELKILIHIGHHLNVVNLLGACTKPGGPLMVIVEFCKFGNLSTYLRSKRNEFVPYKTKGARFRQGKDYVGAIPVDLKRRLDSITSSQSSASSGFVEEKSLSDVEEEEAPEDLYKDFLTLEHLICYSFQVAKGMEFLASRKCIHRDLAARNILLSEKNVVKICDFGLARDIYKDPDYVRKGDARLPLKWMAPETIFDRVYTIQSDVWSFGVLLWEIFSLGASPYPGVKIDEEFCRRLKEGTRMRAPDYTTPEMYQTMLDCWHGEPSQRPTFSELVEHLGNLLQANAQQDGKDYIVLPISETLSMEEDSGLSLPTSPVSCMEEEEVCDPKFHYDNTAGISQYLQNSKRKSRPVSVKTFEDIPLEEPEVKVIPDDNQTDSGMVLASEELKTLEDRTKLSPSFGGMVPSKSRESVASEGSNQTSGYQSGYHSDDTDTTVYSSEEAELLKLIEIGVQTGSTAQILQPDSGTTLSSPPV

[18] = Luminescence Cell-Based Dose Retest to Confirm Inhibitors of Cancer Stem Cells. [Related pubchem assays (depositor defined):AID2717, AID2721]; assay type: functional; settings: Homo sapiens
Vero = experiment: cells; assay type: functional; settings: Chlorocebus sabaeus
[19] = target: Voltage-gated inwardly rectifying potassium channel KCNH2 (Homo sapiens, UniProt Q12809); settings: Potency;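 further: confirmatory quantitative high-throughput screen measuring inhibition of hERG channel activity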

## CN(C)c1ccc(NC(=O)c2ccc(CN3CCc4ccccc4C3)cc2)cc1
[1]
  IC50: 1.61 µM (active)
Tumor necrosis factor
  IC50: 1.83 µM (active)
HEK293 [2]
  IC50: > 20 µM (inactive)

## CCOc1ccc(Nc2ccc(N)c(S(=O)(=O)O)c2)cc1
Albumin
  IC50: > 94.1 µM (inactive)
[3]
  IC50: 11.7 µM (active)
[4]
  IC50: > 66.6 µM (inactive)
HeLa
  AC50: 299 µM (active)
[5]
  IC50: 68.9 µM (active)
[6]
  IC50: 3.21 µM (active)

## Cc1[nH]c2ccccc2c1/C=N/NC(=O)c1cccs1
[7]
  IC50: > 67.6 µM (inactive)
HEK293 [8]
  IC50: > 67.6 µM (inactive)
H9c2
  IC50: > 79 µM (inactive)

## CN1C/C(=C/c2ccncc2)C(=O)/C(=C/c2ccncc2)C1
[9]
  EC50: 7.52 µM (active)
BJ [10]
  EC50: 3.82 µM (active)
BJ [11]
  EC50: 5.85 µM (inconclusive)
BJ [12]
  EC50: 3.65 µM (inconclusive)
BJ [13]
  EC50: 0.455 µM (active)

## CCOC(=O)CCCCC(=O)c1[nH]c(O)nc1CSc1nc(O)c(C#N)c(-c2ccccc2)n1
[14]
  IC50: > 66 µM (inactive)
[15]
  IC50: 1.45 µM (active)
[16]
  IC50: > 66 µM (inactive)

## O=C1Nc2ccccc2Nc2cc(-c3ccccc3O)ccc21
Aurora kinase B
  Ki: > 2.51 µM (inactive)
Aurora kinase A
  Ki: > 2 µM (inactive)
[17]
  Ki: 0.0794 µM (active)

## O=C(Nc1ccc(Cl)cc1)c1cc2c(cc1O)[nH]c1ccccc12
[18]
  AC50: 0.198 µM (active)
Vero
  CC50: 10.9 µM (active)

## N#Cc1c(SCC(=O)Nc2cccc(F)c2)sc2c(O)cc(=O)[nH]c12
[6]
  IC50: 7.26 µM (active)

## COc1ccc(C(=O)N[C@H](C(=O)NCCCSc2ccccc2)C(C)C)cc1
[7]
  IC50: > 67.5 µM (inactive)
HEK293 [8]
  IC50: > 67.5 µM (inactive)

## CCOc1ccc(NC(=O)c2ccc(CCN3CCc4ccccc4C3)cc2)cc1
[1]
  IC50: > 20 µM (inactive)
Tumor necrosis factor
  IC50: > 20 µM (inactive)
HEK293 [2]
  IC50: > 20 µM (inactive)

## O=C(NNc1nc2c(F)cccc2s1)c1ccccc1
[7]
  IC50: > 67.5 µM (inactive)
HEK293 [8]
  IC50: > 67.5 µM (inactive)

## CCOC(=O)CCCCC(=O)c1[nH]c(O)nc1Cn1cnc2ccccc21
[15]
  IC50: 1.86 µM (active)

## Cc1c(C(=O)OCC(=O)N2CC(=O)Nc3ccccc32)oc2ccc(Br)cc12
[9]
  EC50: 15.6 µM (active)
BJ [10]
  EC50: 10.1 µM (active)
BJ [11]
  EC50: > 150 µM (inconclusive)
BJ [12]
  EC50: 35.9 µM (active)
BJ [13]
  EC50: > 133 µM (inactive)

## CCCCOC(=O)c1ccccc1C(=O)OCc1ccccc1
[19]
  AC50: 25.1 µM (inconclusive)

## O=C(OCc1cc(=O)n2c(n1)sc1ccccc12)c1ccc(O)cc1
[6]
  IC50: 5.75 µM (active)
